# Source: patent publication US12195471B2, “Salt of aldose reductase inhibitor, and preparation method and application thereof” (CSPC ZHONGQI PHARMACEUTICAL TECHNOLOGY (SHIJIAZHUANG) CO., …, priority 2019, dated 2025)
# Columns and labels:
# Type in all cases: physicochemical
# Solubility test in water = conditions: for solubility: thermodynamic from solid, in purified water, saturated state
# Protocol: The salts obtained in Example 1, Comparative examples 1, 2 and 6, and the compound of formula A were tested for solubility in water, and the test method was as follows:
# Test method: the samples to be tested were taken in a certain amount, gradually added to the purified water respectively, and continuously shaked until the samples reached the saturated state, the weighed amount of the samples to be tested and the used amount of the solvent were recorded, the concentrations at which the samples were dissolved were calculated, and the test results were shown in the following table: […]
# [1] = Stability test, accelerated test at 40° C.±2° C./75% RH±5% RH; conditions: for Content (%) / Maximum single impurity (%) / Moisture (%) / Total impurity (%): 40° C.±2° C./75% RH±5% RH
# Protocol: The sodium salt of the compound of formula A obtained in Example 1 (packaging conditions: low-density polyethylene bag+polyester/aluminum/polyethylene composite bag for pharmaceutical packaging) was subjected to an accelerated test at 40° C.±2° C./75% RH±5% RH, and the results were as follows: […]
# [2] = Hygroscopicity / stable existence of the obtained salt solid; conditions: concluding statement
# Protocol: With reference to the preparation method of Example 1, the preparation of alkaline amino acid salts: lysine salt, arginine salt, and proline salt of the compound of formula A was carried out using methanol as the reaction solvent.
smiles,measurement,setting,value
"O=C(O)Cc1nn(Cc2nc3cc(C(F)(F)F)ccc3s2)c(=O)c2nccnc12 [Compound of formula A, reference compound]",solubility,Solubility test in water,35 µg/mL
same,solubility in water (in words),Solubility test in water,insoluble in water
O=C([O-])Cc1nn(Cc2nc3cc(C(F)(F)F)ccc3s2)c(=O)c2nccnc12.[Na+] [Example 1],Content (%),[1]; 0 Month,100.8%
same,Maximum single impurity (%),[1]; 0 Month,0.03%
same,Moisture (%),[1]; 0 Month,0.6%
same,Total impurity (%),[1]; 0 Month,0.40%
same,Content (%),[1]; 1 Month,99.6%
same,Maximum single impurity (%),[1]; 1 Month,0.03%
same,Moisture (%),[1]; 1 Month,0.7%
same,Total impurity (%),[1]; 1 Month,0.45%
same,Content (%),[1]; 2 Month,99.9%
same,Maximum single impurity (%),[1]; 2 Month,0.03%
same,Moisture (%),[1]; 2 Month,0.7%
same,Total impurity (%),[1]; 2 Month,0.37%
same,Content (%),[1]; 3 Month,99.6%
same,Maximum single impurity (%),[1]; 3 Month,0.03%
same,Moisture (%),[1]; 3 Month,0.8%
same,Total impurity (%),[1]; 3 Month,0.42%
same,Content (%),[1]; 6 Month,100.9%
same,Maximum single impurity (%),[1]; 6 Month,0.03%
same,Moisture (%),[1]; 6 Month,0.8%
same,Total impurity (%),[1]; 6 Month,0.54%
same,quality stability (in words),[1]; concluding statement,stable quality
same,solubility,Solubility test in water,10000 µg/mL
same,solubility in water (in words),Solubility test in water,good solubility
same,hygroscopicity (in words),[2],low hygroscopicity
